Literature values as cited in patent US4775679A, “Certain heterocyclic-ethyl-2,3-dihydrobenzofurans useful as anti-inflammatory agents” (Merck & Co., Inc., priority 1987, dated 1988).

Tested on: inflammatory responses elicited by topically applied phorbol myristate acetate (PMA) or archidonic acid (AA)

In the case of `COc1ccc2c(c1)c(CC(=O)O)c(C)n2C(=O)c1ccc(Cl)cc1` [Indomethacin], the “active in this assay (topical mouse ear), previously established” value is listed as “active”.
In the case of `C[C@@H]1C[C@H]2[C@@H]3CCC4=CC(=O)C=C[C@]4(C)[C@@]3(F)[C@@H](O)C[C@]2(C)[C@@]1(O)C(=O)CO` [dexamethasone], the “active in this assay (topical mouse ear), previously established” value is listed as “active”.
